Measured values: patent US11000033B2, “Ketone or oxime compound, and herbicide” (NISSAN CHEMICAL CORPORATION, priority 2014, dated 2021)

What was measured:
Type in all cases: in vivo
Monochoria vaginalis = experiment: Test Example 1: herbicidal activity, application before weed generation in submerged conditions (symbol C); settings: application herbicide amount 320 g/ha
Outline: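 Mixed weed seeds sown in alluvial soil under 4 cm of water, with rice seedlings at the 2.5-leaf stage added. Same-day treatment: emulsion diluted to a set herbicide amount onto the water. Three weeks at 25–30 °C, then graded on a six-step scale.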

soybean [1] = experiment: Test Example 4: effect on crop by soil treatment (symbol d); settings: application herbicide amount 320 g/ha
Outline: (§1)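 Soil-treatment setup: crop and weed seeds were spot-sown into sterilized diluvial soil, then buried beneath approximately 1.5 cm of it, and the boxes were housed in a 25–30° C. greenhouse.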

Stellaria media = experiment: Test Example 4: herbicidal effect by soil treatment (symbol P); settings: application herbicide amount 320 g/ha
Outline: (§2)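 Seeds were sown in sterilized diluvial soil, covered with about 1.5 cm of soil, and the soil surface was sprayed with a water-diluted emulsion of the compound at a predetermined rate. Plants grew in a greenhouse at 25° C. to 30° C.; effects were scored visually 3 weeks after application.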

beet = experiment: Test Example 5: effect on crop by foliage application, plastic box (symbol f); settings: 320 g/ha, 3 weeks after application
Outline: (§3)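 Foliage-application test plants come from spot sowing in sterilized diluvial soil under a soil layer of about 1.5 cm, grown at 25° C. to 30° C. in a greenhouse.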

Scirpus juncoides = experiment: Test Example 2: herbicidal activity, application during weed generation in submerged conditions (symbol B); settings: Table 23; application herbicide amount 320 g/ha; grade 0-5 by criteria of Test Example 1
Outline: (§4)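 Compound was applied as a water-diluted emulsion into the standing water of flooded pots (4 cm) once co-sown weeds reached one to two leaves. Greenhouse temperature was 25° C. to 30° C., soil was alluvial, and each species was rated visually after 3 weeks.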

wheat = experiment: Test Example 4: effect on crop by soil treatment (symbol e); settings: application herbicide amount 320 g/ha
Outline: as §1

[2] = system: Echinochloa oryzacola Vasing.; experiment: Test Example 2: herbicidal activity, application during weed generation in submerged conditions (symbol A); settings: Table 23; application herbicide amount 320 g/ha; grade 0-5 by criteria of Test Example 1
Outline: as §4

Cyperus difformis = experiment: Test Example 3: herbicidal effect by foliage application, Wagner pot (symbol E); settings: application herbicide amount 320 g/ha
Outline: (§5)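 In a shallow-flooded alluvial soil system held at 25–30 °C, plants including rice grew for 14 days and were then sprayed over the foliage with emulsion diluted to a fixed herbicide amount. Visual rating followed at 3 weeks.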

rice plant = experiment: Test Example 5: effect on crop by foliage application, plastic box (symbol b); settings: 320 g/ha, 3 weeks after application
Outline: as §3

transplanted rice plant = experiment: Test Example 1: effect on crop, application before weed generation in submerged conditions (symbol a); settings: application herbicide amount 320 g/ha
Outline: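 Rice at 2.5 leaf stage transplanted into submerged soil (4 cm depth) sown with three weed species; herbicide applied before weed emergence.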

Abutilon theophrasti = experiment: Test Example 4: herbicidal effect by soil treatment (symbol M); settings: application herbicide amount 320 g/ha
Outline: as §2

corn [3] = experiment: Test Example 4: effect on crop by soil treatment (symbol c); settings: application herbicide amount 320 g/ha
Outline: as §1

soybean [4] = experiment: Test Example 5: effect on crop by foliage application, plastic box (symbol d); settings: 320 g/ha, 3 weeks after application
Outline: as §3

corn [5] = experiment: Test Example 5: effect on crop by foliage application, plastic box (symbol c); settings: 320 g/ha, 3 weeks after application
Outline: as §3

Leptochloa chinensis = experiment: Test Example 3: herbicidal effect by foliage application, Wagner pot (symbol D); settings: application herbicide amount 320 g/ha
Outline: as §5

[6] = system: Echinochloa crus-galli var. crus-galli; experiment: Test Example 3: herbicidal effect by foliage application, Wagner pot (symbol H); settings: application herbicide amount 320 g/ha
Outline: as §5

CC(=O)CC1CC(O)=C(c2c(C)cc(Br)cc2C)C1=O (stereo not shown) [7-002]
Herbicidal effect grade, C: Monochoria vaginalis (Monochoria vaginalis): 0 (Herbicidal ratio of 5% or lower (almost no effect)) | Effect on crop grade, d: soybean (soybean [1]): 0 (Herbicidal ratio of 5% or lower (almost no effect)) | Herbicidal effect grade, P: Stellaria media (Stellaria media): 0 (Herbicidal ratio of 5% or lower (almost no effect)) | f: beet, effect on crop (criteria of Test Example 1) (beet): 0 (Herbicidal ratio of 5% or lower (almost no effect)) | Herbicidal effect grade, B: Scirpus juncoides (Scirpus juncoides): 0 (Herbicidal ratio of 5% or lower (almost no effect)) | Effect on crop grade, e: wheat (wheat): 0 (Herbicidal ratio of 5% or lower (almost no effect)) | Herbicidal effect grade, A: Echinochloa oryzacola Vasing. [2]: 0 (Herbicidal ratio of 5% or lower (almost no effect)) | herbicidal effect on E, grade 0-5 (Cyperus difformis): 3 (Herbicidal ratio of 40% or higher and lower than 70%) | b: directly sowed rice plant, effect on crop (criteria of Test Example 1) (rice plant): 5 (Herbicidal ratio of 90% or more (almost completely withered)) | Effect grade on crop, a: transplanted rice plant (transplanted rice plant): 2 (Herbicidal ratio of 20% or higher and lower than 40%) | Herbicidal effect grade, M: Abutilon theophrasti (Abutilon theophrasti): 0 (Herbicidal ratio of 5% or lower (almost no effect)) | Effect on crop grade, c: corn (corn [3]): 0 (Herbicidal ratio of 5% or lower (almost no effect)) | d: soybean, effect on crop (criteria of Test Example 1) (soybean [4]): 0 (Herbicidal ratio of 5% or lower (almost no effect)) | c: corn, effect on crop (criteria of Test Example 1) (corn [5]): 3 (Herbicidal ratio of 40% or higher and lower than 70%) | herbicidal effect on D (Leptochloa chinensis), grade 0-5 (Leptochloa chinensis): 5 (Herbicidal ratio of 90% or more (almost completely withered)) | herbicidal effect on H (Echinochloa crus-galli var. crus-galli), grade 0-5 [6]: 5 (Herbicidal ratio of 90% or more (almost completely withered))

CON=C(C)CC1CC(OC(=O)N2CCOCC2)=C(c2c(C)cc(-c3ccc(F)c(Cl)c3)cc2C)C1=O (stereo not shown) [6-093]
Herbicidal effect grade, C: Monochoria vaginalis (Monochoria vaginalis): 4 (Herbicidal ratio of 70% or higher and lower than 90%) | Effect on crop grade, d: soybean (soybean [1]): 0 (Herbicidal ratio of 5% or lower (almost no effect)) | Herbicidal effect grade, P: Stellaria media (Stellaria media): 5 (Herbicidal ratio of 90% or more (almost completely withered)) | f: beet, effect on crop (criteria of Test Example 1) (beet): 3 (Herbicidal ratio of 40% or higher and lower than 70%) | Herbicidal effect grade, B: Scirpus juncoides (Scirpus juncoides): 3 (Herbicidal ratio of 40% or higher and lower than 70%) | Effect on crop grade, e: wheat (wheat): 0 (Herbicidal ratio of 5% or lower (almost no effect)) | Herbicidal effect grade, A: Echinochloa oryzacola Vasing. [2]: 5 (Herbicidal ratio of 90% or more (almost completely withered)) | herbicidal effect on E, grade 0-5 (Cyperus difformis): 4 (Herbicidal ratio of 70% or higher and lower than 90%) | b: directly sowed rice plant, effect on crop (criteria of Test Example 1) (rice plant): 4 (Herbicidal ratio of 70% or higher and lower than 90%) | Effect grade on crop, a: transplanted rice plant (transplanted rice plant): 5 (Herbicidal ratio of 90% or more (almost completely withered)) | Herbicidal effect grade, M: Abutilon theophrasti (Abutilon theophrasti): 0 (Herbicidal ratio of 5% or lower (almost no effect)) | Effect on crop grade, c: corn (corn [3]): 0 (Herbicidal ratio of 5% or lower (almost no effect)) | d: soybean, effect on crop (criteria of Test Example 1) (soybean [4]): 2 (Herbicidal ratio of 20% or higher and lower than 40%) | c: corn, effect on crop (criteria of Test Example 1) (corn [5]): 5 (Herbicidal ratio of 90% or more (almost completely withered)) | herbicidal effect on D (Leptochloa chinensis), grade 0-5 (Leptochloa chinensis): 5 (Herbicidal ratio of 90% or more (almost completely withered)) | herbicidal effect on H (Echinochloa crus-galli var. crus-galli), grade 0-5 [6]: 5 (Herbicidal ratio of 90% or more (almost completely withered))

CON=C(C)CC1CC(O)=C(c2c(C)cc(-n3cncn3)cc2C)C1=O (stereo not shown) [6-074]
Herbicidal effect grade, C: Monochoria vaginalis (Monochoria vaginalis): 0 (Herbicidal ratio of 5% or lower (almost no effect)) | d: soybean, effect on crop grade (soybean [1]): 0 (Herbicidal ratio of 5% or lower (almost no effect)) | P: Stellaria media, herbicidal effect grade (Stellaria media): 0 (Herbicidal ratio of 5% or lower (almost no effect)) | f: beet, effect on crop (criteria of Test Example 1) (beet): 0 (Herbicidal ratio of 5% or lower (almost no effect)) | Herbicidal effect grade, B: Scirpus juncoides (Scirpus juncoides): 0 (Herbicidal ratio of 5% or lower (almost no effect)) | e: wheat, effect on crop grade (wheat): 0 (Herbicidal ratio of 5% or lower (almost no effect)) | Herbicidal effect grade, A: Echinochloa oryzacola Vasing. [2]: 1 (Herbicidal ratio of 5% or higher and lower than 20%) | herbicidal effect on E, grade 0-5 (Cyperus difformis): 2 (Herbicidal ratio of 20% or higher and lower than 40%) | b: directly sowed rice plant, effect on crop (criteria of Test Example 1) (rice plant): 2 (Herbicidal ratio of 20% or higher and lower than 40%) | Effect grade on crop, a: transplanted rice plant (transplanted rice plant): 2 (Herbicidal ratio of 20% or higher and lower than 40%) | M: Abutilon theophrasti, herbicidal effect grade (Abutilon theophrasti): 0 (Herbicidal ratio of 5% or lower (almost no effect)) | c: corn, effect on crop grade (corn [3]): 0 (Herbicidal ratio of 5% or lower (almost no effect)) | d: soybean, effect on crop (criteria of Test Example 1) (soybean [4]): 0 (Herbicidal ratio of 5% or lower (almost no effect)) | c: corn, effect on crop (criteria of Test Example 1) (corn [5]): 0 (Herbicidal ratio of 5% or lower (almost no effect)) | herbicidal effect on D (Leptochloa chinensis), grade 0-5 (Leptochloa chinensis): 5 (Herbicidal ratio of 90% or more (almost completely withered)) | herbicidal effect on H (Echinochloa crus-galli var. crus-galli), grade 0-5 [6]: 4 (Herbicidal ratio of 70% or higher and lower than 90%)

CC#Cc1cc(C)c(C2=C(O)CC(CC(C)=O)C2=O)c(C)c1 (stereo not shown) [7-010]
Herbicidal effect grade, C: Monochoria vaginalis (Monochoria vaginalis): 1 (Herbicidal ratio of 5% or higher and lower than 20%) | Effect on crop grade, d: soybean (soybean [1]): 2 (Herbicidal ratio of 20% or higher and lower than 40%) | Herbicidal effect grade, P: Stellaria media (Stellaria media): 0 (Herbicidal ratio of 5% or lower (almost no effect)) | f: beet, effect on crop (criteria of Test Example 1) (beet): 0 (Herbicidal ratio of 5% or lower (almost no effect)) | Herbicidal effect grade, B: Scirpus juncoides (Scirpus juncoides): 5 (Herbicidal ratio of 90% or more (almost completely withered)) | Effect on crop grade, e: wheat (wheat): 4 (Herbicidal ratio of 70% or higher and lower than 90%) | Herbicidal effect grade, A: Echinochloa oryzacola Vasing. [2]: 5 (Herbicidal ratio of 90% or more (almost completely withered)) | herbicidal effect on E, grade 0-5 (Cyperus difformis): 5 (Herbicidal ratio of 90% or more (almost completely withered)) | b: directly sowed rice plant, effect on crop (criteria of Test Example 1) (rice plant): 5 (Herbicidal ratio of 90% or more (almost completely withered)) | Effect grade on crop, a: transplanted rice plant (transplanted rice plant): 5 (Herbicidal ratio of 90% or more (almost completely withered)) | Herbicidal effect grade, M: Abutilon theophrasti (Abutilon theophrasti): 4 (Herbicidal ratio of 70% or higher and lower than 90%) | Effect on crop grade, c: corn (corn [3]): 5 (Herbicidal ratio of 90% or more (almost completely withered)) | d: soybean, effect on crop (criteria of Test Example 1) (soybean [4]): 3 (Herbicidal ratio of 40% or higher and lower than 70%) | c: corn, effect on crop (criteria of Test Example 1) (corn [5]): 5 (Herbicidal ratio of 90% or more (almost completely withered)) | herbicidal effect on D (Leptochloa chinensis), grade 0-5 (Leptochloa chinensis): 5 (Herbicidal ratio of 90% or more (almost completely withered)) | herbicidal effect on H (Echinochloa crus-galli var. crus-galli), grade 0-5 [6]: 5 (Herbicidal ratio of 90% or more (almost completely withered))
